Consider 1 molecule from patent US20250152591A1, “TREATMENT OF HEMATOLOGICAL MALIGNANCIES WITH MENIN INHIBITORS AND P-GLYCOPROTEIN INHIBITORS” (Kura Oncology, Inc., priority 2022, published 2025).

One may read the Papp A→B as the apparent permeability from the apical to the basolateral side of a cell layer. A high value points to ready permeation. As a reminder, the efflux ratio is the permeability from basolateral to apical divided by that in the opposite direction, in the common usage.

In this series the target is P-gp (Homo sapiens, UniProt P08183). Put plainly: P-gp substrate assessment using MDR1-MDCK monolayers (Example 1, +/- valspodar). Type of series: in vitro ADME. Also on record: expressed in transfected cells; host or cells: MDR1-MDCK cells. As to the method:
MDR1-MDCK cell monolayers were grown to confluence on collagen-coated, microporous membranes in 12-well assay plates. Details of the plates and their certification are shown below. The permeability assay buffer was Hanks' balanced salt solution (HBSS) containing 10 mM HEPES and 15 mM glucose at a pH of 7.4. The buffer in the receiver chamber also contained 1% bovine serum albumin. The dosing solution concentration was 5 μM of test article in the assay buffer+/−1 μM valspodar. Cells were first pre-incubated for 30 min with HBSS containing+/−1 μM valspodar. Cell monolayers were dosed on the apical side (A-to-B) or basolateral side (B-to-A) and incubated at 37° C. with 5% CO2 in a humidified incubator. Samples were taken from the donor and receiver chambers at 120 min. Each determination was performed in duplicate. The flux of lucifer yellow was also measured post-experimentally for each monolayer to ensure no damage was inflicted to the cell monolayers during the flux period. All samples were assayed by LC-MS/MS using electrospray ionization. Liquid chromatography conditions are summarized as follows: Column: Thermo BDS Hypersil C18 30×2.1 mm, […], with guard column; M.P. Buffer: 25 mM ammonium formate buffer, pH 3.5; Aqueous Reservoir (A): 90% water, 10% buffer; Organic Reservoir (B): 90% acetonitrile, 10% buffer; Flow Rate: 350 μL/minute; Total run time: 3.5 min; Autosampler: 10 μL injection volume; Autosampler wash: water/methanol/2-propanol: 1/1/1; with 0.2% formic acid.
The apparent permeability (Papp) and percent recovery were calculated as follows: […]
where, • dCr/dt is the slope of the cumulative concentration in the receiver compartment versus time in μM s^−1; • Vr is the volume of the receiver compartment in cm^3; • Vd is the volume of the donor compartment in cm^3; • A is the area of the insert (1.13 cm^2 for 12-well); • CA is the average of the nominal dosing concentration and the measured 120 minute donor concentration in μM; • CN is the nominal concentration of the dosing solution in μM; • Cr^final is the cumulative receiver concentration in μM at the end of the incubation period; • Cd^final is the concentration of the donor in μM at the end of the incubation period.
Efflux ratio (ER) is defined as Papp (B-to-A)/Papp (A-to-B).
• ER≥2.0 without valspodar, and reduced by ≥50% with valspodar: Positive • ER≥2.0 without valspodar, and reduced by <50% with valspodar: Negative • ER<2.0 without and with valspodar: Negative

Each structure is given as a SMILES string. Like-named read-outs stand apart in the source and are kept apart here.

Chain of P-gp (P08183 whole entry): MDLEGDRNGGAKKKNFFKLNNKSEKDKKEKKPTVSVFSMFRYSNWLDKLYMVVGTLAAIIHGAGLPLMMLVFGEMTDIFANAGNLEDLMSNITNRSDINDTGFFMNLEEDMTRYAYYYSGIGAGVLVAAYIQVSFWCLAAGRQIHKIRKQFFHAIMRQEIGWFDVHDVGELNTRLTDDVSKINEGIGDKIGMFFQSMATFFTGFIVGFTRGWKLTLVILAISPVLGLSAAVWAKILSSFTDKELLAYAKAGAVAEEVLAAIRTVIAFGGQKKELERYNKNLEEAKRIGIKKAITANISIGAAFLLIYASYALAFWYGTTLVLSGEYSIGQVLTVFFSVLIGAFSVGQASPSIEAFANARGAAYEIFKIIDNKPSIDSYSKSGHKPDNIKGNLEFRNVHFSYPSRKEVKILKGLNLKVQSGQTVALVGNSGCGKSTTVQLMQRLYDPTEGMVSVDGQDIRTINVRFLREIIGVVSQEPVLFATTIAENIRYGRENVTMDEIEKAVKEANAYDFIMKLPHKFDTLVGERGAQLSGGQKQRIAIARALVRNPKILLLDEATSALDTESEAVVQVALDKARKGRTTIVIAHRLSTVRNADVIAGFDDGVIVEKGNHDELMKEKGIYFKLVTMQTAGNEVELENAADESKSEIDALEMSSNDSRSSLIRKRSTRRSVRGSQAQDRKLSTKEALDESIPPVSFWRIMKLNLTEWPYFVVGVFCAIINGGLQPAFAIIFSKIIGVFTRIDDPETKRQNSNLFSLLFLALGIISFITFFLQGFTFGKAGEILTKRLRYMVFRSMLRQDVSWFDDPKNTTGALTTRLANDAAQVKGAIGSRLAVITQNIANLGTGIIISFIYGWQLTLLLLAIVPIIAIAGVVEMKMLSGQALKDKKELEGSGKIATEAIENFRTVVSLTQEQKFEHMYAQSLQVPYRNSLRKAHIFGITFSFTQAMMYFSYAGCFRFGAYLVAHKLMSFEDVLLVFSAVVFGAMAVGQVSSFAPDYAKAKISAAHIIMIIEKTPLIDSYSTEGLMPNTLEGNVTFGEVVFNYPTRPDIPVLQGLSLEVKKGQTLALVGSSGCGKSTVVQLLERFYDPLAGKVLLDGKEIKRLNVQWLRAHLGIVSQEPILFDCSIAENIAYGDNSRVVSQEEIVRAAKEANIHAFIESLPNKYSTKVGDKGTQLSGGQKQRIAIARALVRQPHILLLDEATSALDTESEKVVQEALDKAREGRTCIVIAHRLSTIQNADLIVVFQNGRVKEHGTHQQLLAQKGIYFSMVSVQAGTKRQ

Consider `CNc1nc(NC2CCN(Cc3ccc4c(cc(C#N)n4C[C@H](C)N4CCN(S(C)(=O)=O)CC4)c3C)CC2)c2cc(CC(F)(F)F)sc2n1` [Compound I], for which the “Papp Avg” value (A-to-B, without valspodar) is given as 0.09 10^−6 cm/s. The “P-gp substrate” value (MDR1-MDCK cell monolayers) is given as “substrate of P-gp”. In addition, the “P-gp Substrate Classification” value (MDR1-MDCK, ER without and with valspodar) was “Positive (ER≥2.0 without valspodar, and reduced by ≥50% with valspodar)”. In addition, the recovery at 120 min, 5 μM by setting is: (dog, MDCK-MDR1, pH 7.4, A-to-B, 5 μM test article, without valspodar) 70%; (dog, MDCK-MDR1, pH 7.4, B-to-A, 5 μM test article, without valspodar) 83%; (dog, MDCK-MDR1, pH 7.4, with valspodar 1 μM, A-to-B, 5 μM test article + 1 μM valspodar) 53%; (dog, MDCK-MDR1, pH 7.4, with valspodar 1 μM, B-to-A, 5 μM test article + 1 μM valspodar) 118%. Besides, the Papp B→A at 120 min, 5 μM is 9.41 ×10⁻⁶ cm/s (dog, MDCK-MDR1, pH 7.4, B-to-A, without valspodar, read-out: Papp Avg); 6.43 ×10⁻⁶ cm/s (dog, MDCK-MDR1, pH 7.4, B-to-A, without valspodar, read-out: Papp R1); 9.21 ×10⁻⁶ cm/s (dog, MDCK-MDR1, pH 7.4, B-to-A, without valspodar, read-out: Papp R2); 12.6 ×10⁻⁶ cm/s (dog, MDCK-MDR1, pH 7.4, B-to-A, without valspodar, read-out: Papp R3). Also, under “dog, MDCK-MDR1, pH 7.4, A-to-B, without valspodar”, the Papp A→B at 120 min, 5 μM worked out at 0.09 ×10⁻⁶ cm/s. Besides, for the setting “dog, MDCK-MDR1, pH 7.4, Papp (B-to-A)/Papp (A-to-B), without valspodar”, the efflux ratio at 120 min, 5 μM amounted to 105.
